A short description of series [1]: TD 50 - Neurotoxicity, rotating rod. Details: species or system mouse (male Carworth Farms Mice). The settings on record: in vivo, ip, mouse, intraperitoneal. Here is the method: TD 50: is the ED 50 for the behavior of the mouse on the experimental
model of the rotating rod in mg/kg with intraperitoneal application. The
TD 50 is a measure for the undesired neurotoxic side effect.
(§1) All experiments were carried out with male Carworth Farms Mice.
(§2) The materials were tested in three dosages (30, 100, 300 mg/kg) (600 mg/kg was co-tested if a sufficient amount of the material was present). The materials in each case were dissolved in 30% aqueous polyethylene glycol solution.
The test on the rotating rod was referred to for the evaluation of the neurotoxicity. The animals were placed on a rotating (6 rotations per minute) plastic rod having a diameter of 2.54 cm. […] An animal was characterized as neurologically toxic if it fell from the rotating rod within one minute.
number of animals which fell/total number of test animals

Series [2] in a line: s.c. Met - Subcutaneous Pentetrazole (Metrazole) Test (anticonvulsive action, intraperitoneal). To be noted: in vivo, ip; mouse, intraperitoneal; number below the slanting line; read-out: quotient TD 50/ED 50 (MET), therapeutic breadth. Format: in vivo, mouse (male Carworth Farms Mice). Here is the method: as §1, §2
(§3) The absence of a clearly noticeable attack, (single occurrence of a […] spasm lasting 5 seconds) based on the previous intraperitoneal application of the test substances evaluated as protective action (the test substances were applied intraperitoneally before the application of pentetrazole). The results were represented as follows: number of animals having protective action/total number of test animals

Series [3] deals with mouse. The description is as above. It is filed as in vivo, mouse (male Carworth Farms Mice). To be noted: ip, read-out: Metrazole-Test (MET) ED 50. Here is the method:
as §1, §2, §3

The nature of series [4]: MES - Maximum Electroshock Attack Test (anticonvulsive action, intraperitoneal). The settings on record: in vivo, ip; mouse, intraperitoneal; number below the slanting line; read-out: quotient TD 50/ED 50 (MES), therapeutic breadth. Format: in vivo, mouse (male Carworth Farms Mice). Here is the method: as §1, §2
(§4) A maximum electroshock attack was obtained through alternating current (60 Hz, 50 m A intensity) with which the mouse was irritated for 0.2 seconds via corneal electrodes. A 5-7 times weaker intensity of irritation was sufficient to produce a minimum electroshock-attack. One drop of 0.9% aqueous NaCl solution was given before applying the electrodes into the eyes in order to guard against killing the animals. The test substances were dispersed intraperitoneally before the irritation. […] the tonic stretching components of the attack (rear extremities) was regarded as protective action. The results were represented as follows:
(§5) number of animals having protective action/total number of test animals

Series [5] relates to mouse. The description is as above. To be noted: ip, read-out: Maximum Electro-Shock (MES) ED 50. Format: in vivo, mouse (male Carworth Farms Mice). The procedure:
as §1, §2, §4, §5

A short description of series [6]: Oral acute toxicity (LD 50) according to Miller & Tainter. The settings on record: in vivo, mouse, per os, observation time 24 hours. Details: species or system white mouse. Here is the method:
Examples for the toxicity on the mouse per se (expressed as LD 50 in mg/kg are as follows: […]
The determination of the oral toxicity on the white mouse was carried out in the international procedure according to Miller & Tainter (Proc. Soc., Exper. Biol. a Med. Vol. 57, page 261 et. seq. (1944)) with an observation time of 24 hours. The toxicity was stated as LD 50 in mg/kg.

In the case of `CCOC(=O)Nc1ccc(NCc2ccc(C(C)=O)cc2)nc1N` [D 10 558, 2-amino-3-carbethoxyamino-6-(4-methylcarbonyl-benzylamino)-pyridine], the TD50 in series [1] was found to be 73.9 mg/kg. In addition, the selectivity ratio in series [2] amounted to 4; in series [4] it was 1.37. The ED50 in the series with mouse [3] (Mus musculus) was determined as 18.4 mg/kg; in the series with mouse [5] (Mus musculus), 53.8 mg/kg.

Consider `CC(=O)Nc1ccc(NCc2ccc(F)cc2)nc1N.Cl` [D 13 223, 2-amino-3-acetamino-6-(4-fluoro-benzylamino)-pyridine-hydrochloride], for which the TD50 in series [1] came out at 201 mg/kg. Besides, the selectivity ratio was found to be 2.14 in series [2] and 2.38 in series [4]. The figures for the ED50 in the series with mouse [3] (Mus musculus) and in the series with mouse [5] (Mus musculus) were 93.8 mg/kg and 84.3 mg/kg, respectively.

Consider `CCOC(=O)Nc1ccc(NCc2ccc(C(F)(F)F)cc2)nc1N.Cl` [D 11 208, 2-amino-3-carbethoxyamino-6-(4-trifluoromethyl-benzylamino)-pyridine-hydrochloride], for which the TD50 in series [1] came out at 76.3 mg/kg. For the same compound, the selectivity ratio is 6.81 in series [2] and 2.73 in series [4]. The ED50 in the series with mouse [3] (Mus musculus) came out at 11.2 mg/kg; with mouse [5] (Mus musculus), 27.9 mg/kg.

For the compound `CCOC(=O)Nc1ccc(NCc2ccc(S(N)(=O)=O)cc2)nc1N` [D 9805, 2-amino-3-carbethoxyamino-6-(4-aminosulfonyl-benzylamino)-pyridine], in series [1], the TD50 was determined as 530 mg/kg. The selectivity ratio turned out to be 0.96 in series [2] and 4.9 in series [4]. Also, the ED50 with mouse [3] (Mus musculus) stood at 550 mg/kg; with mouse [5] (Mus musculus), 108 mg/kg.

For the compound `CCOC(=O)Nc1ccc(NCc2ccc(Cl)cc2)nc1N.Cl` [D 9389, 2-amino-3-carbethoxyamino-6-(4-chlorobenzylamino)-pyridine-hydrochloride], the TD50 in series [1] came out at 23.9 mg/kg. The LD50 at 24 h in series [6] lay in the range of 1250 to 1500 mg/kg. Also, the selectivity ratio in series [2] came to 2.39; in series [4], 1.64. Besides, the ED50 with mouse [3] (Mus musculus) was determined as 10 mg/kg; with mouse [5] (Mus musculus), 14.6 mg/kg.

`CCOC(=O)Nc1ccc(NCc2ccccc2)nc1N.Cl` [D 7175, 2-amino-3-carbethoxyamino-6-benzylamino-pyridine-hydrochloride] registered a TD50 in series [1] of 45.6 mg/kg. The LD50 at 24 h in series [6] was 402 mg/kg. In addition, the selectivity ratio amounted to 4.8 in series [2] and 2.3 in series [4]. The ED50 is 9.46 mg/kg in the series on mouse [3] (Mus musculus) and 19.7 mg/kg in the series with mouse [5] (Mus musculus).

In series [1], `CCOC(=O)Nc1ccc(NCc2c(C)cc(C)cc2C)nc1N.Cl` [D 10 328, 2-amino-3-carbethoxyamino-6-(2,4,6-trimethyl-benzylamino)pyridine-hydrochloride] registered a TD50 of 1.09 mg/kg. The same compound came in with a 50% lethal dose (LD50) at 24 h in series [6] of 127 mg/kg. Also, the selectivity ratio in series [2] came out at 1.08; in series [4], 0.55. Moreover, the ED50 was 1.01 mg/kg with mouse [3] (Mus musculus) and 1.97 mg/kg with mouse [5] (Mus musculus).

`CCOC(=O)Nc1ccc(NCc2ccc(NC(C)=O)cc2)nc1N.Cl` [D 9663, 2-amino-3-carbethoxyamino-6-(4-methylcarbonylamino-benzylamino)-pyridine-hydrochloride] came in with a TD50 in series [1] of 142 mg/kg. Besides, the selectivity ratio turned out to be 2.49 in series [2] and 1.15 in series [4]. Also, the ED50 in the series with mouse [3] (Mus musculus) stood at 57.2 mg/kg; with mouse [5] (Mus musculus), 124 mg/kg.

`CCOC(=O)Nc1ccc(NCc2ccc(F)cc2)nc1N.Cl` [D 9998, 2-amino-3-carbethoxyamino-6-(4-fluorobenzylamino)-pyridine-hydrochloride] gave a TD50 in series [1] of 37.7 mg/kg. Also, the median lethal dose (LD50) at 24 h in series [6] came to 617 mg/kg. Besides, the selectivity ratio in series [2] amounted to 1.86; in series [4], 1.67. Further, the ED50 with mouse [3] (mouse, intraperitoneal, s.c. pentetrazole 85 mg/kg) came to 20.3 mg/kg; with mouse [5] (mouse, intraperitoneal) it was 22.5 mg/kg.

`CCOC(=O)Nc1ccc(NCc2cccc(F)c2)nc1N.Cl` [D 10 981, 2-amino-3-carbethoxyamino-6-(3-fluorobenzylamino)-pyridine-hydrochloride] yielded a TD50 in series [1] of 32.7 mg/kg. Besides, in series [6], the LD50 at 24 h was found to be 2060 mg/kg. Further, the results for the selectivity ratio in series [2] and in series [4] were 3.61 and 1.9, respectively. For the same compound, the ED50 turned out to be 9.07 mg/kg in the series on mouse [3] (Mus musculus) and 17.2 mg/kg in the series with mouse [5] (Mus musculus).

For the origin of these results see patent publication US4554281A, “2-Amino-3-acylamino-6-benzylamino-pyridine-derivative having antiepileptic action” (priority 1982, dated 1985).
